Experimental data published in article doi:10.1101/2022.04.14.488411v1 (biorxiv, 2022).
Read-outs that look alike come from different tables or passages of the source. One block for each compound: values may come before it.

Columns and labels:
RPMI 8226 [1] = assay: cells; settings: Homo sapiens, RPMI-8226, 72 h, read-out: IC50 (uM)
ABCG2 [2] = target: T1, ABCG2 (Homo sapiens, UniProt Q9UNQ0); assay: potentiation of TAK-243 cytotoxicity, Resazurin viability; format: cell-based
T1 sequence (Q9UNQ0 1-655): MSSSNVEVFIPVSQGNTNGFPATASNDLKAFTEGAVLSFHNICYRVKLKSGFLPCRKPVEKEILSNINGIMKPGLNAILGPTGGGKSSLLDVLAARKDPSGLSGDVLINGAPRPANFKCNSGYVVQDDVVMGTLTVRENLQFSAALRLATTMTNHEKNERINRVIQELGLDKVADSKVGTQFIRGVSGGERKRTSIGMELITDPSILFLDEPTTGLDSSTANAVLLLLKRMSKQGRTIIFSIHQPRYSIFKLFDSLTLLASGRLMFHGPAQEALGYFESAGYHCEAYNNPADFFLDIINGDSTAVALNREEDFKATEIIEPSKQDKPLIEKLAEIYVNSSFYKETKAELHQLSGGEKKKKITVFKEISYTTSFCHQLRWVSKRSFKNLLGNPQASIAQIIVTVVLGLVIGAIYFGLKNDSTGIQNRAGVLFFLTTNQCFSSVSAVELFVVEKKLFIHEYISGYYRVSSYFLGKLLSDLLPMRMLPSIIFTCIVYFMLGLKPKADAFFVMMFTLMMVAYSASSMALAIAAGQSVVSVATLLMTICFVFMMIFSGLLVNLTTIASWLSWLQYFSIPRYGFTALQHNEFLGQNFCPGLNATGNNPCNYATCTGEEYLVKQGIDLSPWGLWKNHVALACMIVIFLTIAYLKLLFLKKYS

RPMI 8226 [3] = assay: cells; settings: Homo sapiens, RPMI-8226, 72 h, read-out: IC50 (uM); remark: listed apart in the source
ABCG2 [4] = assay: cells; settings: Homo sapiens, RPMI-8226, 72 h, read-out: IC50 (uM)
RPMI 8226 [5] = assay: cells; settings: Homo sapiens, RPMI-8226, 72 h, read-out: IC50 (uM); remark: listed apart in the source
RPMI 8226 [6] = assay: cells; settings: Homo sapiens, RPMI-8226, 72 h, read-out: IC50 (nM)
RPMI 8226 [7] = assay: cells; parameters: species or system KMS11; settings: Homo sapiens, RPMI-8226, 72 h, read-out: IC50 (nM), TAK-243 alone
MDAY-D2 = assay: cells; settings: Mus musculus, MDAY-D2, 72 h, read-out: IC50 (nM)
KMS11 = assay: cells; parameters: species or system RPMI 8226; settings: Homo sapiens, KMS-11, 72 h, read-out: IC50 (nM)
RPMI 8226 [8] = assay: cells; parameters: species or system KMS11; settings: Homo sapiens, RPMI-8226, 72 h, read-out: IC50 (nM), TAK-243 alone; remark: listed apart in the source
OCI-M2 = assay: cells; settings: OCI-M2, 72 h, read-out: IC50 (nM)
HEK293 = assay: cells; settings: Homo sapiens, HEK293, 72 h, read-out: IC50 (nM)
MV4-11 = assay: cells; settings: Homo sapiens, MV4-11, 72 h, read-out: IC50 (nM)
U937 = assay: cells; settings: Homo sapiens, U-937, 72 h, read-out: IC50 (nM)
K562 = assay: cells; settings: Homo sapiens, K562, 72 h, read-out: IC50 (nM)
OCI-AML2 = assay: cells; settings: Homo sapiens, OCI-AML2, 72 h, read-out: IC50 (nM)
MCF7 = assay: cells; settings: Homo sapiens, MCF7, 72 h, read-out: IC50 (nM)
NB4 = assay: cells; settings: Homo sapiens, NB-4, 72 h, read-out: IC50 (nM)
A549 = assay: cells; settings: Homo sapiens, A549, 72 h, read-out: IC50 (nM)
HepG2 = assay: cells; settings: Homo sapiens, HepG2, 72 h, read-out: IC50 (nM)
Jurkat = assay: cells; settings: Homo sapiens, Jurkat, 72 h, read-out: IC50 (nM)

SMILES: Clc1cc2c(NC3CCCC3)nnc(-c3ccncc3)c2cc1Cl [A-196]
IC50 (RPMI 8226 [1]): > 10 µM
apparent IC50 (ABCG2 [2]): 521.8 nM

SMILES: COc1cc(-c2cn(C)c(=O)c3cnccc23)c(OC)cc1CN(C)C [BI-9564]
IC50 (RPMI 8226 [3]): > 10 µM
IC50 (ABCG2 [4]): > 10 µM

SMILES: CO[C@H]1CC[C@H](n2c([C@@H]3CCCC(=O)N3c3ccc(F)c(F)c3)nc3cc(-c4c(C)noc4C)ccc32)CC1 [Inobrodib]
IC50 (RPMI 8226 [3]): 7.62 µM

SMILES: N#Cc1ccnc(N2C(=O)CC[C@H]2C(=O)N(c2cncc(F)c2)[C@H](C(=O)NC2CC(F)(F)C2)c2ccccc2Cl)c1 [Ivosidenib]
IC50 (RPMI 8226 [3]): > 10 µM
IC50 (ABCG2 [4]): > 10 µM

SMILES: O=C1c2c(O)ccc(O)c2C(=O)c2c(NCCNCCO)ccc(NCCNCCO)c21 [MTX, mitoxantrone]
IC50 (RPMI 8226 [5]): 0.0786 µM

SMILES: NS(=O)(=O)OC[C@@H]1C[C@@H](n2ccc3c(N[C@H]4CCc5ccccc54)ncnc32)C[C@@H]1O [Pevo, pevonedistat]
IC50 (RPMI 8226 [5]): 0.997 µM

SMILES: NS(=O)(=O)OC[C@H]1C[C@@H](Nc2ccnc3cc(-c4cccc(SC(F)(F)F)c4)nn23)[C@H](O)[C@@H]1O [TAK-243]
IC50 (RPMI 8226 [6]): 1370 nM
IC50 (RPMI 8226 [7]): 558 nM
IC50 (MDAY-D2): 1230 nM
IC50 (KMS11): 685 nM
IC50 (RPMI 8226 [8]): 578 nM
IC50 (OCI-M2): 44 nM
IC50 (HEK293): 177 nM
IC50 (MV4-11): 19.4 nM
IC50 (U937): 17.9 nM
IC50 (K562): 6.43 nM
IC50 (OCI-AML2): 27.1 nM
IC50 (MCF7): 404 nM
IC50 (NB4): 10.1 nM
IC50 (A549): 1290 nM
IC50 (HepG2): 60.1 nM
IC50 (Jurkat): 12.2 nM

The next lines start with the values.

IC50 (RPMI 8226 [1]): > 10 µM
SMILES: COc1c(C)cc(NC(=O)c2nn(Cc3ccc(F)cc3)c3c2CN(C(=O)c2ccc[nH]2)C[C@]3(C)C(N)=O)cc1C [GSK-864]

IC50 (RPMI 8226 [1]): > 10 µM
SMILES: COc1ccccc1C(=O)Nc1cc2c(cc1N1CCCC1)n(C)c(=O)n2C [PFI-4]

IC50 (RPMI 8226 [1]): > 10 µM
SMILES: COc1ccc(CCc2nc3cc(-c4c(C)noc4C)ccc3n2C[C@H](C)N2CCOCC2)cc1Cl [SGC-CBP30]

IC50 (RPMI 8226 [1]): > 10 µM
SMILES: CCCc1cc(C)[nH]c(=O)c1CNC(=O)c1cc(-c2ccc(N3CCN(C(C)C)CC3)nc2)cc2c1cnn2C(C)C [UNC1999]
